Laboratory results published in ChEMBL document CHEMBL5634076, “Optimization of pyridylpiperazine-based inhibitors of the Escherichia coli AcrAB-TolC efflux pump” (Eur J Med Chem, 2023).
In brackets after ≈: the same amount, converted by molar mass.

Experiments:
Escherichia coli [1] = test: Antibacterial activity against Escherichia coli BW25113 assessed as reduction in bacterial growth incubated for 20 hrs by resazurin microtitre assay; assay type: functional
[2] = biological target: T1, Multidrug efflux pump subunit AcrB (Escherichia coli (strain K12)) (UniProt P31224); test: Inhibition of AcrB in Escherichia coli BW25113 assessed as potentiation of pyridomycin-induced antibacterial activity incubated for 20 hrs by resazurin microtitre assay
T1 sequence (whole entry): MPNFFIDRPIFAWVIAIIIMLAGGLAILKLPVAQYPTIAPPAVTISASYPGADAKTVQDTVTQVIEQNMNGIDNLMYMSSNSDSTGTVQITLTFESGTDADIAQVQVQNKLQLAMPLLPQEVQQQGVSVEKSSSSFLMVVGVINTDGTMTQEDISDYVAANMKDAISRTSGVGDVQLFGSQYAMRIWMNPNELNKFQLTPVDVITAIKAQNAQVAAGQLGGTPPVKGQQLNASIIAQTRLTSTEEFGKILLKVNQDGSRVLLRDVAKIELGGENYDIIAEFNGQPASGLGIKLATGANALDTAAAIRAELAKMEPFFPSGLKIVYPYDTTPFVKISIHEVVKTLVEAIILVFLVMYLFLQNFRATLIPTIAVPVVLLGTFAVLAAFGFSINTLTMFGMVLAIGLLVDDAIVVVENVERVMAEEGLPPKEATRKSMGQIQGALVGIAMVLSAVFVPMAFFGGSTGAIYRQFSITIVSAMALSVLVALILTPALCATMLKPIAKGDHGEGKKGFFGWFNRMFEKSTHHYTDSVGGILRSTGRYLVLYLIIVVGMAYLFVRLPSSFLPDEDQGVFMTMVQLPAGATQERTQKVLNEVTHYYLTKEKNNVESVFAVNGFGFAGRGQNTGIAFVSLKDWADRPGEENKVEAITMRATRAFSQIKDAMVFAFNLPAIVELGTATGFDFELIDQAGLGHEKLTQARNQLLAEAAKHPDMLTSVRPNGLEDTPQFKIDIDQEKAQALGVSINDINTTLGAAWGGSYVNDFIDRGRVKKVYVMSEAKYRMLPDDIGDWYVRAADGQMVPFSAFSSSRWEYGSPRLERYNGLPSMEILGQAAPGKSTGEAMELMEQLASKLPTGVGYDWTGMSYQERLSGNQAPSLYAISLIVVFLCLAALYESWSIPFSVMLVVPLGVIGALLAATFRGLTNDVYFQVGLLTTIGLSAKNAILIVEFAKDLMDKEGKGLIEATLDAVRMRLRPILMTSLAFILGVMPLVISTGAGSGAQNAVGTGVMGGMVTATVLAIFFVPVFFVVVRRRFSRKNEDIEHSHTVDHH

Escherichia coli [3] = test: Antibacterial activity against Escherichia coli BW25113 assessed as reduction in bacterial growth incubated up to 18 hrs by resazurin microtitre assay; assay type: functional
Escherichia coli [4] = test: Inhibition of AcrB Glu947Gln mutant in Escherichia coli BW25113 assessed as potentiation of pyridomycin-induced antibacterial activity incubated for 20 hrs by resazurin microtitre assay
Escherichia coli [5] = test: Inhibition of AcrB Asp951Asn mutant in Escherichia coli BW25113 assessed as potentiation of pyridomycin-induced antibacterial activity incubated for 20 hrs by resazurin microtitre assay
Escherichia coli [6] = test: Selectivity ratio of EC90 for inhibition of AcrB Glu947Gln mutant in Escherichia coli BW25113 to inhibition of AcrB in Escherichia coli BW25113 incubated for 20 hrs by resazurin microtitre assay
Escherichia coli [7] = test: Selectivity ratio of EC90 for inhibition of AcrB Asp951Asn mutant in Escherichia coli BW25113 to inhibition of AcrB in Escherichia coli BW25113 incubated for 20 hrs by resazurin microtitre assay
[8] = biological target: T1, Multidrug efflux pump subunit AcrB (Escherichia coli (strain K12)); test: Potency index, ratio of BDM73185 EC90 to test compound EC90 for inhibition of AcrAB-TolC in Escherichia coli BW25113

SMILES | MIC (Escherichia coli [1]) | EC90 [2] | other results
CNC(=O)c1cnc(N2CCNCC2)c(Cl)c1 | > 250 µM | > 250 µM | 
C[C@H]1CNCCN1c1ncc(C(F)(F)F)cc1Cl | > 250 µM | > 500 µM | 
CCN1CCN(C(=O)N[C@@H](C(=O)N[C@@H]2C(=O)N3[C@@H]2SC(C)(C)[C@@H]3C(=O)O)c2ccccc2)C(=O)C1=O [PIPERACILLIN] |  |  | MIC95 (Escherichia coli [3]): 4 µg/mL (≈ 7.73 µM)
CC(C)(C)OC(=O)N1CCN(c2ncc(/C(N)=N/O)cc2Cl)CC1 | > 250 µM |  | 
CS(=O)(=O)Nc1cnc(N2CCNCC2)c(Cl)c1 | > 250 µM | > 250 µM | 
FC(F)(F)c1cnc(N2CCCNCC2)c(Cl)c1 | > 250 µM | > 500 µM | 
CC(=O)Nc1cnc(N2CCNCC2)c(Cl)c1 | > 250 µM | 187 µM | 
NCCc1ccc(NC(=O)c2cnc(N3CCNCC3)c(Cl)c2)cc1 | > 250 µM | 187 µM | 
FC(F)(F)c1ccc(N2CCNCC2)nc1 | > 250 µM | > 500 µM | 
NCCCc1nc(-c2cnc(N3CCNCC3)c(Cl)c2)no1 | > 250 µM | 21 µM | EC90 (Escherichia coli [4]): > 250 µM; EC90 (Escherichia coli [5]): > 250 µM; Ratio (Escherichia coli [6]): > 12; Ratio (Escherichia coli [7]): > 12
O=C(Oc1ccccc1)c1cnc(N2CCNCC2)c(Cl)c1 | > 250 µM | 23 µM | 
O=C(CBr)c1cnc(N2CCN(C(=O)OCC(Cl)(Cl)Cl)CC2)c(Cl)c1 | > 250 µM |  | 
O=C(OCCCc1ccccc1)c1cnc(N2CCNCC2)c(Cl)c1 | 250 µM (≈ 90 µg/mL) | 250 µM | 
Cc1nc(-c2cnc(N3CCNCC3)c(Cl)c2)co1 | > 250 µM | > 250 µM | 
NCCc1ccc(OC(=O)c2cnc(N3CCNCC3)c(Cl)c2)cc1 | > 250 µM | 3 µM | EC90 (Escherichia coli [4]): 8 µM; EC90 (Escherichia coli [5]): 23 µM; Ratio (Escherichia coli [6]): 3; Ratio (Escherichia coli [7]): 8
OCc1cnc(N2CCNCC2)c(Cl)c1 | > 250 µM | > 250 µM | 
Cc1nc(-c2cnc(N3CCNCC3)c(Cl)c2)no1 | > 250 µM | 78 µM | 
NCCNc1ncc(C(F)(F)F)cc1Cl | > 250 µM | > 500 µM | 
O=C(Oc1cccc(CO)c1)c1cnc(N2CCNCC2)c(Cl)c1 | > 250 µM | 26 µM | EC90 (Escherichia coli [4]): 62 µM; EC90 (Escherichia coli [5]): 62 µM; Ratio (Escherichia coli [6]): 2.4; Ratio (Escherichia coli [7]): 2.4
CC(C)(C)OC(=O)N1CCN(c2ncc(N)cc2Cl)CC1 | > 250 µM |  | 
OCc1cc(C(F)(F)F)cnc1N1CCNCC1 | > 250 µM | > 500 µM | 
O=C(OCCc1ccccc1)c1cnc(N2CCNCC2)c(Cl)c1 | > 250 µM | 62 µM | 
CCOC(=O)c1cnc(N2CCNCC2)c(Cl)c1 | > 250 µM | 12 µM | Ratio [8]: 3
NCc1cccc(COc2cnc(N3CCNCC3)c(Cl)c2)c1 | > 250 µM | 10 µM | EC90 (Escherichia coli [4]): > 250 µM; EC90 (Escherichia coli [5]): 250 µM; Ratio (Escherichia coli [6]): > 25; Ratio (Escherichia coli [7]): 25

SMILES | MIC (Escherichia coli [1]) | EC90 [2] | other results
CC(=O)O[C@H]1C[C@@]2(C)[C@@H](C[C@@H](O)[C@H]3[C@@]4(C)CC[C@@H](O)[C@@H](C)[C@@H]4CC[C@@]32C)/C1=C(\CCC=C(C)C)C(=O)O [FUSIDIC ACID] |  |  | MIC95 (Escherichia coli [1]): > 128 µg/mL
O=C1CN(c2ncc(C(F)(F)F)cc2Cl)CCN1 | > 250 µM | > 500 µM | 
O=C(OCc1ccccc1)c1cnc(N2CCNCC2)c(Cl)c1 | > 250 µM | 156 µM | 
NC1CCN(c2ncc(C(F)(F)F)cc2Cl)CC1 | > 250 µM | 500 µM | 
C[C@@H]1CN(c2ncc(C(F)(F)F)cc2Cl)C[C@H](C)N1 | > 250 µM | > 500 µM | 
FC(F)(F)c1cnc(C2=CCNCC2)c(Cl)c1 | > 250 µM | > 250 µM | 
CC[C@H]1OC(=O)[C@H](C)[C@@H](O[C@H]2C[C@@](C)(OC)[C@@H](O)[C@H](C)O2)[C@H](C)[C@@H](O[C@@H]2O[C@H](C)C[C@H](N(C)C)[C@H]2O)[C@](C)(O)C[C@@H](C)C(=O)[C@H](C)[C@@H](O)[C@]1(C)O [ERYTHROMYCIN] |  |  | MIC95 (Escherichia coli [3]): 128 µg/mL (≈ 174 µM)
NCc1cccc(NC(=O)c2cnc(N3CCNCC3)c(Cl)c2)c1 | > 250 µM | 156 µM | 
CC(=O)NC[C@H]1CN(c2ccc(N3CCOCC3)c(F)c2)C(=O)O1 [LINEZOLID] |  |  | MIC95 (Escherichia coli [1]): > 128 µg/mL
O=C(O)c1cn(C2CC2)c2cc(N3CCNCC3)c(F)cc2c1=O [CIPROFLOXACIN] |  |  | MIC95 (Escherichia coli [1]): 0.01 µg/mL (≈ 0.0302 µM)
FC(F)(F)c1cc(I)cnc1N1CCNCC1 | > 250 µM | 94 µM | 
FC(F)(F)c1cnc(N2CCNCC2)c(Br)c1 | > 250 µM | 16 µM | 
O=C(O)c1cnc(N2CCNCC2)c(Cl)c1 | > 250 µM |  | 
O=C(N[C@H](CO)[C@H](O)c1ccc([N+](=O)[O-])cc1)C(Cl)Cl [CHLORAMPHENICOL] |  |  | MIC95 (Escherichia coli [1]): 8 µg/mL (≈ 24.8 µM)
NCc1cccc(OCc2cnc(N3CCNCC3)c(Cl)c2)c1 | > 250 µM | 23 µM | EC90 (Escherichia coli [4]): > 250 µM; EC90 (Escherichia coli [5]): > 250 µM; Ratio (Escherichia coli [6]): > 11; Ratio (Escherichia coli [7]): > 11
Cc1onc(-c2ccccc2)c1C(=O)N[C@@H]1C(=O)N2[C@@H]1SC(C)(C)[C@@H]2C(=O)O [OXACILLIN] |  |  | MIC95 (Escherichia coli [1]): > 128 µg/mL
NCCOC(=O)c1cnc(N2CCNCC2)c(Cl)c1 | > 250 µM | > 250 µM | 
COC(=O)c1cnc(N2CCNCC2)c(Cl)c1 | > 250 µM | 20 µM | Ratio [8]: 3
NCCc1ccc(C(=O)Nc2cnc(N3CCNCC3)c(Cl)c2)cc1 | > 250 µM | 47 µM | 
Cc1nc(-c2cnc(N3CCNCC3)c(Cl)c2)cs1 | > 250 µM | 187 µM | 
CO[C@@H]1[C@@H](OC(N)=O)[C@@H](O)[C@H](Oc2ccc3c(O)c(NC(=O)c4ccc(O)c(CC=C(C)C)c4)c(=O)oc3c2C)OC1(C)C [NOVOBIOCIN] |  |  | MIC95 (Escherichia coli [1]): 80 µg/mL (≈ 131 µM)
NCc1nc(-c2cnc(N3CCNCC3)c(Cl)c2)no1 | > 250 µM | 81 µM | EC90 (Escherichia coli [4]): 250 µM; EC90 (Escherichia coli [5]): 250 µM; Ratio (Escherichia coli [6]): 3; Ratio (Escherichia coli [7]): 3
Cc1nnc(-c2cnc(N3CCNCC3)c(Cl)c2)o1 | > 250 µM | 187 µM | 
C[C@@H]1CNCCN1c1ncc(C(F)(F)F)cc1Cl | > 250 µM | > 500 µM | 
